Experimental data from US20230000876A1, “TREATING CANCERS WITH A CYCLIN-DEPENDENT KINASE INHIBITOR” (Nuvation Bio Inc., priority 2021, published 2023).

What was measured:
xMDA-MB-361 breast tumor = xMDA-MB-361 breast tumor model (ER-positive/HER2-positive); format: in vivo, female BALB/c nude mice; details: Group 5: Compound (I) 30 mg/kg PO QD*42 days
Description: Trastuzumab, tucatinib, Compound (I), and fulvestrant were tested in a xMDA-MB-361 breast tumor model (ER-positive/HER2-positive) on female BALB/c nude mice.

COLO 829 = assay: Cell viability assay, melanoma cell line COLO 829; format: cell-based
Description: 4.4.4 Compound Plate (10×) Preparation and Compound Treatment • 10× concentrate compound plate preparation: Add 198 μL of assay medium into each well of the V-bottom plate; then transfer 2 μL of the stock compound solution of each concentration from the stock plate. Add 2 μL of DMSO into the Blank and Control wells. Pipette up and down to mix well. This V-plate is designated as the 10× concentrate compound plate. • For day 0 plate, add 15 μL of the DMSO-medium into the Control wells. The final DMSO concentration was 0.1%. Then directly proceed to cell viability assay. • For assay plate, add 15 μL of the compound-medium of each well from the 10× concentrate compound plate into the cells in 96-well assay plate according to the plate map. Add 15 μL of the DMSO-medium into the Blank and Control wells. The final DMSO concentration was 0.1%. • Return the assay plate into incubator and incubate for 6 days.
The procedures were performed according to the Promega CellTiter-Glo Luminescent Cell Viability Assay Kit manual (Promega-G7573). • The CellTiter-Glo buffer was thawed and equilibrated to room temperature prior to use. • CellTiter-Glo Substrate was equilibrated to room temperature prior to use. • The entire liquid volume of CellTiter-Glo Buffer was transferred into the amber bottle containing CellTiter-Glo Substrate to reconstitute the lyophilized enzyme/substrate mixture. […] Plates were covered with aluminum foil to protect from light. • The contents were mixed for 2 minutes on an orbital shaker to induce cell lysis. • The plate was incubated at room temperature for 20 minutes to stabilize luminescent signal. • Record luminescence on the 2104 EnVision plate reader.
Inhibition rate (IR) of the tested compounds was determined by the following formula: IR (%)=(1−(RLU compound−RLU day0)/(RLU control−RLU day0))*100%. The inhibitions of different dose of compound were calculated in Excel file, and then were used to plot inhibition curves and evaluate related parameters, such as Min (%), Max (%) and GI50. […]

VCap prostate cancer = assay: Non-castrated VCap prostate cancer model; format: in vivo, male CB17/Scid mice
Description: Compound (I), enzalutamide, and abiraterone were tested in non-castrated VCap prostate cancer model in male CB17/Scid mice.
All treatment groups reduced mean tumor volume.

SMILES: CC(C)N1CCOc2c(F)cc(-c3nc(Nc4ccc(C5CCN(C)CC5)cn4)ncc3F)cc21 [Compound (I), 5-fluoro-4-(8-fluoro-4-isopropyl-3,4-dihydro-2H-benzo[b][1,4]oxazin-6-yl)-N-(5-(1-methylpiperidin-4-yl)pyridin-2-yl)pyrimidin-2-amine]
- Tumor volume (mean ± SEM) (xMDA-MB-361 breast tumor; Day 0): 157 ± 11 mm^3
- Tumor volume (mean ± SEM) (xMDA-MB-361 breast tumor; Day 3): 202 ± 10 mm^3
- Tumor volume (mean ± SEM) (xMDA-MB-361 breast tumor; Day 7): 271 ± 34 mm^3
- Tumor volume (mean ± SEM) (xMDA-MB-361 breast tumor; Day 10): 316 ± 43 mm^3
- Tumor volume (mean ± SEM) (xMDA-MB-361 breast tumor; Day 14): 342 ± 49 mm^3
- Tumor volume (mean ± SEM) (xMDA-MB-361 breast tumor; Day 17): 326 ± 70 mm^3
- Tumor volume (mean ± SEM) (xMDA-MB-361 breast tumor; Day 21): 360 ± 84 mm^3
- Tumor volume (mean ± SEM) (xMDA-MB-361 breast tumor; Day 24): 429 ± 119 mm^3
- Tumor volume (mean ± SEM) (xMDA-MB-361 breast tumor; Day 28): 542 ± 146 mm^3
- Tumor volume (mean ± SEM) (xMDA-MB-361 breast tumor; Day 31): 571 ± 150 mm^3
- Tumor volume (mean ± SEM) (xMDA-MB-361 breast tumor; Day 35): 587 ± 148 mm^3
- Tumor volume (mean ± SEM) (xMDA-MB-361 breast tumor; Day 38): 629 ± 164 mm^3
- Tumor volume (mean ± SEM) (xMDA-MB-361 breast tumor; Day 42): 608 ± 145 mm^3
- GI50 (COLO 829; Homo sapiens, COLO-829, read-out: Absolute GI50): 0.875 µM
- Max (%) (COLO 829; inhibition rate): 107.94%
- Min (%) (COLO 829; inhibition rate): −3.11%
- Tumor volume (mean ± SEM) (VCap prostate cancer; Group 3: Compound (I) 10 mg/kg p.o. QD * 26 days, Day 0): 171.8 ± 6 mm^3
- Tumor volume (mean ± SEM) (VCap prostate cancer; Group 3: Compound (I) 10 mg/kg p.o. QD * 26 days, Day 4): 221.9 ± 15.2 mm^3
- Tumor volume (mean ± SEM) (VCap prostate cancer; Group 3: Compound (I) 10 mg/kg p.o. QD * 26 days, Day 7): 260.9 ± 13.8 mm^3
- Tumor volume (mean ± SEM) (VCap prostate cancer; Group 3: Compound (I) 10 mg/kg p.o. QD * 26 days, Day 11): 310.5 ± 19.9 mm^3
- Tumor volume (mean ± SEM) (VCap prostate cancer; Group 3: Compound (I) 10 mg/kg p.o. QD * 26 days, Day 14): 381.2 ± 15.4 mm^3
- Tumor volume (mean ± SEM) (VCap prostate cancer; Group 3: Compound (I) 10 mg/kg p.o. QD * 26 days, Day 18): 420.6 ± 20.2 mm^3
- Tumor volume (mean ± SEM) (VCap prostate cancer; Group 3: Compound (I) 10 mg/kg p.o. QD * 26 days, Day 21): 514.2 ± 16.5 mm^3
- Tumor volume (mean ± SEM) (VCap prostate cancer; Group 3: Compound (I) 10 mg/kg p.o. QD * 26 days, Day 25): 596.9 ± 22.9 mm^3
- Tumor volume (mean ± SEM) (VCap prostate cancer; Group 4: Compound (I) 30 mg/kg p.o. QD * 26 days, Day 0): 171.7 ± 6.1 mm^3
- Tumor volume (mean ± SEM) (VCap prostate cancer; Group 4: Compound (I) 30 mg/kg p.o. QD * 26 days, Day 4): 218.9 ± 14.4 mm^3
- Tumor volume (mean ± SEM) (VCap prostate cancer; Group 4: Compound (I) 30 mg/kg p.o. QD * 26 days, Day 7): 233.4 ± 16.4 mm^3
- Tumor volume (mean ± SEM) (VCap prostate cancer; Group 4: Compound (I) 30 mg/kg p.o. QD * 26 days, Day 11): 253.7 ± 20.6 mm^3
- Tumor volume (mean ± SEM) (VCap prostate cancer; Group 4: Compound (I) 30 mg/kg p.o. QD * 26 days, Day 14): 279.1 ± 23.6 mm^3
- Tumor volume (mean ± SEM) (VCap prostate cancer; Group 4: Compound (I) 30 mg/kg p.o. QD * 26 days, Day 18): 259.2 ± 23.5 mm^3
- Tumor volume (mean ± SEM) (VCap prostate cancer; Group 4: Compound (I) 30 mg/kg p.o. QD * 26 days, Day 21): 235.9 ± 18.3 mm^3
- Tumor volume (mean ± SEM) (VCap prostate cancer; Group 4: Compound (I) 30 mg/kg p.o. QD * 26 days, Day 25): 232.9 ± 21.3 mm^3
- Antitumor effect (VCap prostate cancer; compound (I) 30 mg/kg PO QD, enzalutamide 20 mg/kg PO QD): greatest inhibition of tumor growth
